Laboratory results reported in US20240425479A1, “HALO-SUBSTITUTED AMINO AZA-HETEROARYL COMPOUNDS AS INHIBITORS OF THE HAEMATOPOIETIC PROGENITOR KINASE 1 (HPK1)” (priority 2021, published 2024).

These molecules were tested against T1, Recombinant (1-346) HPK1 (h) (Homo sapiens, UniProt Q92918) (assay: HPK1 human STE kinase enzymatic radiometric assay). Conditions: read-out: HPK1 IC50 nM Range.
T1 construct: Recombinant (1-346) HPK1 (h) is incubated with 8 mM MOPS pH 7.0
T1 sequence (Q92918 1-346): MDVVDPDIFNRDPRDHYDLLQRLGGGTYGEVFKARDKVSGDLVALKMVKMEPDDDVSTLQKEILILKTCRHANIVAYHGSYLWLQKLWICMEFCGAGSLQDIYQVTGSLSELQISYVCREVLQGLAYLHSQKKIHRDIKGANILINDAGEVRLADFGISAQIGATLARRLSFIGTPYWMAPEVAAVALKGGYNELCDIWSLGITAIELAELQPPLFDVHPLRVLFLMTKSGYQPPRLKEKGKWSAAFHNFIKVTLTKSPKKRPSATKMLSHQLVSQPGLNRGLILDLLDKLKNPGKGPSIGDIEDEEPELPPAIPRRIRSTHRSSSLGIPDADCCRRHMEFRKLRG
Type: biochemical
Description: (a) HPK1 Human STE Kinase Enzymatic Radiometric Assay
A stock solution of 10 mM of test compound is prepared in DMSO. The compound plate was prepared by 3-fold and 9-point serial dilutions. Recombinant (1-346) HPK1 (h) is incubated with 8 mM MOPS pH 7.0, 0.2 mM EDTA, 0.33 mg/mL myelin basic protein, 10 mM MgAcetate and [gamma-33P]-ATP (specific activity and concentration as required). The reaction is initiated by the addition of the Mg/ATP mix. After incubation for 40 minutes at RT, the reaction is stopped by the addition of phosphoric acid to a concentration of 0.5%, 10 μL of the reaction is then spotted onto a P30 filtermat and washed four times for 4 minutes in 0.425% phosphoric acid and once in methanol prior to drying and scintillation counting. For more details of kinase assay protocols, see: Gao, Y. et. al.; Biochem J.451 (2): 313-328, 2013.
In the case of `Cc1nc2cc(-c3nc(-c4ccc(N5CCN(CC6CC6)CC5)cc4)c(F)nc3N)ccc2c(=O)[nH]1` [Example I-79, 7-(3-amino-6-(4-(4-(cyclopropylmethyl)piperazin-1-yl)phenyl)-5-fluoropyrazin-2-yl)-2-methylquinazolin-4(3H)-one], the IC50 is reported as 101 to 1000 nM. With `Cc1nc2cc(-c3nc(-c4ccc(N5CCN(CCCC(F)F)CC5)cc4)c(F)nc3N)ccc2c(=O)[nH]1` [Example I-81, 7-(3-amino-6-(4-(4-(4,4-difluorobutyl)piperazin-1-yl)phenyl)-5-fluoropyrazin-2-yl)-2-methylquinazolin-4(3H)-one] the IC50 was 11 to 100 nM. For `Nc1nc(F)c(-c2ccc(N3CCN(CCC(F)F)CC3)cc2)nc1-c1cc(F)c2c(c1)CCNC2=O` [Example I-82, 6-(3-amino-6-(4-(4-(3,3-difluoropropyl)piperazin-1-yl)phenyl)-5-fluoropyrazin-2-yl)-8-fluoro-3,4-dihydroisoquinolin-1(2H)-one], the IC50 was 0.1 to 10 nM. `Nc1nc(F)c(-c2ccc(N3CCN(CC4CC4)CC3)cc2)nc1-c1ccc2c(=O)[nH]cc(F)c2c1` [Example I-84, 6-(3-amino-6-(4-(4-(cyclopropylmethyl)piperazin-1-yl)phenyl)-5-fluoropyrazin-2-yl)-4-fluoroisoquinolin-1(2H)-one] showed an IC50 of 0.1 to 10 nM. `Nc1nc(F)c(-c2ccc(N3CCN(CCC(F)F)CC3)cc2)nc1-c1ccc2c(=O)[nH]ccc2c1` [Example I-86, 6-(3-amino-6-(4-(4-(3,3-difluoropropyl)piperazin-1-yl)phenyl)-5-fluoropyrazin-2-yl)isoquinolin-1(2H)-one] was tested, and the IC50 was 11 to 100 nM. `Cc1c[nH]c(=O)c2ccc(-c3nc(-c4ccc(N5CCN(CCC(F)F)CC5)cc4)c(F)nc3N)cc12` [Example I-87, 6-(3-amino-6-(4-(4-(3,3-difluoropropyl)piperazin-1-yl)phenyl)-5-fluoropyrazin-2-yl)-4-methylisoquinolin-1(2H)-one] gave an IC50 greater than 1000 nM. `CN(C)Cc1cc(-c2nc(-c3cc(F)c4c(c3)CCNC4=O)c(N)nc2F)ccc1N1CCOCC1` [Example I-88, 6-(3-amino-6-(3-((dimethylamino)methyl)-4-morpholinophenyl)-5-fluoropyrazin-2-yl)-8-fluoro-3,4-dihydroisoquinolin-1(2H)-one] was tested, and the IC50 was 11 to 100 nM. In the case of `CN(C)Cc1cc(-c2nc(-c3ccc4c(=O)[nH]cc(F)c4c3)c(N)nc2F)ccc1N1CCOCC1` [Example I-89, 6-(3-amino-6-(3-((dimethylamino)methyl)-4-morpholinophenyl)-5-fluoropyrazin-2-yl)-4-fluoroisoquinolin-1(2H)-one], the IC50 is reported as 0.1 to 10 nM. `CC(C)N1CCN(c2ccc(-c3nc(-c4cc(F)c5c(=O)[nH]cc(Cl)c5c4)c(N)nc3F)cc2)CC1` [Example I-90, 6-(3-amino-5-fluoro-6-(4-(4-isopropylpiperazin-1-yl)phenyl)pyrazin-2-yl)-4-chloro-8-fluoroisoquinolin-1(2H)-one] showed an IC50 of 0.1 to 10 nM. In the case of `C[C@@H]1CN(c2ccc(-c3nc(-c4ccc5c(=O)[nH]cc(F)c5c4)c(N)nc3F)cc2)C[C@H](C)N1C` [Example I-93, 6-(3-amino-5-fluoro-6-(4-((3R,5S)-3,4,5-trimethylpiperazin-1-yl)phenyl)pyrazin-2-yl)-4-fluoroisoquinolin-1(2H)-one], the IC50 is reported as 0.1 to 10 nM. Molecule `Cc1nc2cc(-c3nc(-c4ccc(N5C[C@@H](C)N(C)[C@@H](C)C5)cc4)c(F)nc3N)ccc2c(=O)[nH]1` [Example I-95, 7-(3-amino-5-fluoro-6-(4-((3R,5S)-3,4,5-trimethylpiperazin-1-yl)phenyl)pyrazin-2-yl)-2-methylquinazolin-4(3H)-one] has an IC50 of 11 to 100 nM. Work on `Nc1nc(F)c(-c2ccc([C@]34C[C@H]3CN(C3CCC3)C4)cc2)nc1-c1ccc2c(=O)[nH]cc(F)c2c1` [Example I-99, 6-(3-amino-6-(4-((1S,5R)-3-cyclobutyl-3-azabicyclo[3.1.0]hexan-1-yl)phenyl)-5-fluoropyrazin-2-yl)-4-fluoroisoquinolin-1(2H)-one] yielded an IC50 of 0.1 to 10 nM. `Cc1[nH]c(=O)c2ccc(-c3nc(-c4ccc(N5CCOCC5)c(CN(C)C)c4)c(F)nc3N)cc2c1F` [Example I-101, 6-(3-amino-6-(3-((dimethylamino)methyl)-4-morpholinophenyl)-5-fluoropyrazin-2-yl)-4-fluoro-3-methylisoquinolin-1(2H)-one] showed an IC50 of 0.1 to 10 nM. For `Cc1[nH]c(=O)c2c(F)cc(-c3nc(-c4ccc(N5CCN(C(C)C)CC5)cc4)c(F)nc3N)cc2c1Cl` [Example I-102, 6-(3-amino-5-fluoro-6-(4-(4-isopropylpiperazin-1-yl)phenyl)pyrazin-2-yl)-4-chloro-8-fluoro-3-methylisoquinolin-1(2H)-one], the IC50 was 0.1 to 10 nM. `Cc1[nH]c(=O)c2c(F)cc(-c3nc(-c4ccc(C5CCOCC5)c(CN(C)C)c4)c(F)nc3N)cc2c1Cl` [Example I-104, 6-(3-amino-6-(3-((dimethylamino)methyl)-4-(tetrahydro-2H-pyran-4-yl)phenyl)-5-fluoropyrazin-2-yl)-4-chloro-8-fluoro-3-methylisoquinolin-1(2H)-one] gave an IC50 of 0.1 to 10 nM. With `CN(C)Cc1cc(-c2nc(-c3ccc4c(c3)C3(CC3)CNC4=O)c(N)nc2F)ccc1N1CCOCC1` [Example I-105, 6′-(3-amino-6-(3-((dimethylamino)methyl)-4-morpholinophenyl)-5-fluoropyrazin-2-yl)-2′,3′-dihydro-1′H-spiro[cyclopropane-1,4′-isoquinolin]-1′-one] the IC50 was 0.1 to 10 nM. `Cc1[nH]c(=O)c2ccc(-c3nc(-c4ccc(N5CCN(CC6CC6)CC5)cc4)c(F)nc3N)cc2c1F` [Example I-106, 6-(3-amino-6-(4-(4-(cyclopropylmethyl)piperazin-1-yl)phenyl)-5-fluoropyrazin-2-yl)-4-fluoro-3-methylisoquinolin-1(2H)-one] was tested, and the IC50 was 0.1 to 10 nM. For `Cc1[nH]c(=O)c2c(F)cc(-c3nc(-c4ccc(N5CCN(CC6CC6)CC5)cc4)c(F)nc3N)cc2c1Cl` [Example I-107, 6-(3-amino-6-(4-(4-(cyclopropylmethyl)piperazin-1-yl)phenyl)-5-fluoropyrazin-2-yl)-4-chloro-8-fluoro-3-methylisoquinolin-1(2H)-one], the IC50 was 0.1 to 10 nM. For `Nc1nc(F)c(-c2ccc(N3CCN(CC4CC4)CC3)cc2)nc1-c1ccc2c(c1)C1(CC1)CNC2=O` [Example I-108, 6′-(3-amino-6-(4-(4-(cyclopropylmethyl)piperazin-1-yl)phenyl)-5-fluoropyrazin-2-yl)-2′,3′-dihydro-1′H-spiro[cyclopropane-1,4′-isoquinolin]-1′-one], the IC50 was 0.1 to 10 nM. Molecule `Cc1[nH]c(=O)c2c(F)cc(-c3nc(-c4ccc(N5CCOCC5)c(CN(C)C)c4)c(F)nc3N)cc2c1Cl` [Example I-109, 6-(3-amino-6-(3-((dimethylamino)methyl)-4-morpholinophenyl)-5-fluoropyrazin-2-yl)-4-chloro-8-fluoro-3-methylisoquinolin-1(2H)-one] has an IC50 of 0.1 to 10 nM. Molecule `Cc1[nH]c(=O)c2c(F)cc(-c3nc(-c4ccc(N5CCN(C(C)C)CC5)cc4)c(F)nc3N)cc2c1F` [Example I-111, 6-(3-amino-5-fluoro-6-(4-(4-isopropylpiperazin-1-yl)phenyl)pyrazin-2-yl)-4,8-difluoro-3-methylisoquinolin-1(2H)-one] has an IC50 of 0.1 to 10 nM. `Nc1nc(F)c(-c2ccc(N3CCOCC3)c(CN3CCCC3)c2)nc1-c1cc(F)c2c(c1)CCNC2=O` [Example I-112, 6-(3-amino-5-fluoro-6-(4-morpholino-3-(pyrrolidin-1-ylmethyl)phenyl)pyrazin-2-yl)-8-fluoro-3,4-dihydroisoquinolin-1(2H)-one] was tested, and the IC50 was 0.1 to 10 nM. `Nc1nc(F)c(-c2ccc(N3CCOCC3)c(CN3CCCC3)c2)nc1-c1ccc2c(=O)[nH]ccc2c1` [Example I-114, 6-(3-amino-5-fluoro-6-(4-morpholino-3-(pyrrolidin-1-ylmethyl)phenyl)pyrazin-2-yl)isoquinolin-1(2H)-one] showed an IC50 of 0.1 to 10 nM. With `Cc1[nH]c(=O)c2c(F)cc(-c3nc(-c4ccc(N5CCN(CC6CC6)CC5)cc4)c(F)nc3N)cc2c1F` [Example I-115, 6-(3-amino-6-(4-(4-(cyclopropylmethyl)piperazin-1-yl)phenyl)-5-fluoropyrazin-2-yl)-4,8-difluoro-3-methylisoquinolin-1(2H)-one] the IC50 was 0.1 to 10 nM. For `Cc1[nH]c(=O)c2c(F)cc(-c3nc(-c4ccc(N5CCOCC5)c(CN(C)C)c4)c(F)nc3N)cc2c1F` [Example I-116, 6-(3-amino-6-(3-((dimethylamino)methyl)-4-morpholinophenyl)-5-fluoropyrazin-2-yl)-4,8-difluoro-3-methylisoquinolin-1(2H)-one], the IC50 was 0.1 to 10 nM. `COC1CCN(Cc2cc(-c3nc(-c4cc5c(cc4F)C(=O)NCC5)c(N)nc3F)ccc2N2CCOCC2)CC1` [Example I-118, 6-(3-amino-5-fluoro-6-(3-((4-methoxypiperidin-1-yl)methyl)-4-morpholinophenyl)pyrazin-2-yl)-7-fluoro-3,4-dihydroisoquinolin-1(2H)-one] was tested, and the IC50 was 11 to 100 nM.
